Data reported in patent publication US20230159510A1, “NOVEL PRMT5 INHIBITORS” (AMGEN INC., priority 2020, published 2023).
Read-outs that look alike come from different tables or passages of the source.

Experiments:
HCT116 WT cells = assay: HCT116 proliferation assay, WT cells (CellTiter-Glo, 6 days); type: cell-based; conditions: Homo sapiens, HCT-116, 144 h, read-out: Prolif_HCT116-WT IC50
Method in brief: (§1)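 Both lines grow in RPMI 1640 containing 10% fetal bovine serum. After an overnight rest, they receive compound at up to 1 or 10 µM in threefold serial dilutions, with vehicle wells holding DMSO only.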

HCT116 MTAP null cells = assay: HCT116 proliferation assay, MTAP null cells (CellTiter-Glo, 6 days); type: cell-based; conditions: 144 h, read-out: Protif_ HCT116-MTAP null IC50
Method in brief: as §1

PRMT5/MEP50 = PRMT5/MEP50 (Homo sapiens, UniProt O14744); assay: MTase-Glo methyl transferase assay, Method A (Histone H4 peptide, 1 µM MTA, 24 h pre-incubation); type: biochemical; set-up: made in house; conditions: read-out: PRMT5 MTase Glo Ki (nM, Meth. A)
Method in brief: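 PRMT5/MEP50 (10 nM) pre-incubated 24 h with compound, 5 µM SAM and 1 µM MTA, then reaction started with 1 µM Histone H4 (1-21) peptide and run 2 h at room temperature in Tris pH 8.0 buffer. SAH formed detected by MTase-Glo luminescence; IC50 and KI from dose-response curves.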

PRMT5/MEP50, sequence (O14744 whole entry): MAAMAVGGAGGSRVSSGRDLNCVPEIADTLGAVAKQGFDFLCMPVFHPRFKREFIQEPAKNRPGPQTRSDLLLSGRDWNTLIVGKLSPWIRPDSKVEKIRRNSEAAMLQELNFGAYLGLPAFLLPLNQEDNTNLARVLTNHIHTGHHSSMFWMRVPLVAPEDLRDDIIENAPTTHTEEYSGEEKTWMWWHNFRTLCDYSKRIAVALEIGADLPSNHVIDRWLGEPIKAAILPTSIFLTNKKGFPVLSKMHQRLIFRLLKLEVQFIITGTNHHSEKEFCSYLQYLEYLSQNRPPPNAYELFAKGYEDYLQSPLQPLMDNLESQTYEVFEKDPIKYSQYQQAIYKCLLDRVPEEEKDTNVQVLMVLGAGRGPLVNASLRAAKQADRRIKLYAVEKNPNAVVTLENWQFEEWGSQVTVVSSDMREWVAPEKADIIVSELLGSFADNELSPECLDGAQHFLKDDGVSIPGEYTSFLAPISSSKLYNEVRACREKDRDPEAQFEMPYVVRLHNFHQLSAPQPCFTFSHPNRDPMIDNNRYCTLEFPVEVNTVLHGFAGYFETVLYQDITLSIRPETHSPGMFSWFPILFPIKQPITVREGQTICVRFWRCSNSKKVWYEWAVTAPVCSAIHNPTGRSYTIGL
PRMT5/MEP50, sequence (Q9BQA1 whole entry partner): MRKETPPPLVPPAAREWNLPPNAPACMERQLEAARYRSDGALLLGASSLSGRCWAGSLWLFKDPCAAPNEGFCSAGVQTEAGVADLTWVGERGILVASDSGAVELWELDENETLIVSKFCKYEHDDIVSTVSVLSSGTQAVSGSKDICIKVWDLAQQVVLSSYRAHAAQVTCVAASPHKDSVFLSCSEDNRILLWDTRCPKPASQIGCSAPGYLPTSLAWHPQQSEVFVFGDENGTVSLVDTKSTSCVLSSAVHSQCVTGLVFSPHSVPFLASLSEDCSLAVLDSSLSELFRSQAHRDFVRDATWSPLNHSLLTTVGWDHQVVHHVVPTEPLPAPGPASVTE

| IC50 (HCT116 WT cells) [nM] | IC50 (HCT116 MTAP null cells; HCT116-MTAP null) [nM] | Ki (PRMT5/MEP50) [nM] | Compound | IC50 (HCT116 MTAP null cells) [nM] |
| --- | --- | --- | --- | --- |
| > 10000 | 682 | 0.47 | C[C@H](c1ncccn1)N(Cc1ccc(C#N)cn1)C(=O)c1cnc2nc(N)c(Br)cc2c1 [Example 406, 7-amino-6-bromo-N-((5-cyano-2-pyridinyl)methyl)-N-((1R)-1-(2-pyrimidinyl)ethyl)-1,8-naphthyridine-3-carboxamide] | – |
| 3210 | 173 | 0.07 | Cc1cc2cc(C(=O)N(Cc3ccc(C#N)cn3)[C@H](C)c3ncc(F)cc3F)ccc2nc1N [Example 431, 2-amino-N-((5-cyano-2-pyridinyl)methyl)-N-((1R)-1-(3,5-difluoro-2-pyridinyl)ethyl)-3-methyl-6-quinolinecarboxamide] | – |
| 720 | 27 | 0.002 | Cc1cc2cc(C(=O)N(Cc3ccc(C4=CCOCC4)nn3)[C@H](C)c3ncccn3)ccc2nc1N [Example 333, 2-amino-N-((6-(3,6-dihydro-2H-pyran-4-yl)-3-pyridazinyl)methyl)-3-methyl-N-((1R)-1-(2-pyrimidinyl)ethyl)-6-quinolinecarboxamide] | – |
| 4390 | 262 | 1.09 | Cc1cc2cc(C(=O)N(Cc3ccc(C4CC4)cn3)CC(C)C)ccc2nc1N [Example 546, 2-amino-N-((5-cyclopropyl-2-pyridinyl)methyl)-3-methyl-N-(2-methylpropyl)-6-quinolinecarboxamide] | – |
| 8210 | 342 | 0.22 | Cc1cc2cc(C(=O)N(Cc3ncccc3F)[C@H](C)c3ccc(C(F)(F)F)cn3)ccc2nc1N [Example 393, 2-amino-N-((3-fluoro-2-pyridinyl)methyl)-3-methyl-N-((1R)-1-(5-(trifluoromethyl)-2-pyridinyl)ethyl)-6-quinolinecarboxamide] | – |
| 7850 | 155 | 1.82 | Cc1cc2cc(C(=O)N(Cc3ccc(C(F)(F)F)cn3)[C@@H]3CCCN(C)C3=O)ccc2nc1N (single isomer, unassigned) [Example 460] | – |
| 7050 | 385 | 4.34 | Cc1cc2cc(C(=O)N(Cc3ccc(Br)cn3)CC(C)C)ccc2nc1N [Example 357, 2-amino-N-((5-bromo-2-pyridinyl)methyl)-3-methyl-N-(2-methylpropyl)-6-quinolinecarboxamide] | – |
| > 10000 | 349 | 0.29 | Cc1cc2cc(C(=O)N(Cc3ccc(C(F)(F)F)cn3)[C@@H]3CCCN(C4CC4)C3=O)ccc2nc1N (single isomer, unassigned) [Example 462] | – |
| 6270 | 194 | 0.17 | Cc1cc2cc(C(=O)N(Cc3ccc(S(=O)(=O)C4CC4)cn3)[C@H](C)c3ncccc3F)ccc2nc1N [Example 540, (R)-2-amino-N-((5-(cyclopropylsulfonyl)pyridin-2-yl)methyl)-N-(1-(3-fluoropyridin-2-yl)ethyl)-3-methylquinoline-6-carboxamide] | – |
| 6200 | 227 | 0.18 | Cc1cc2cc(C(=O)N(Cc3ccc(C(F)F)cn3)[C@@H]3CCC[C@H]3O)ccc2nc1N [Example 364, 2-amino-N-((5-(difluoromethyl)pyridin-2-yl)methyl)-N-((1R,2R)-2-hydroxycyclopentyl)-3-methylquinoline-6-carboxamide] | – |
| 801 | 35 | 0.02 | Cc1cc2cc(C(=O)N(Cc3ccc(C(F)(F)F)cn3)Cc3ccnc4[nH]ccc34)ccc2nc1N [Example 356, 2-amino-3-methyl-N-(1H-pyrrolo[2,3-b]pyridin-4-ylmethyl)-N-((5-(trifluoromethyl)-2-pyridinyl)methyl)-6-quinolinecarboxamide] | – |
| 1730 | 42 | 0.18 | Cc1cc2cc(C(=O)N(Cc3ccc(C4=CCOCC4)cn3)[C@H](C)c3ncccn3)ccc2nc1N [Example 557, (R)-2-amino-N-((5-(3,6-dihydro-2H-pyran-4-yl)pyridin-2-yl)methyl)-3-methyl-N-(1-(pyrimidin-2-yl)ethyl)quinoline-6-carboxamide] | – |
| 4320 | 125 | 0.16 | Cc1cc2cc(C(=O)N(Cc3ccc(C(F)F)cn3)Cc3ncccc3F)ccc2nc1N [Example 326, 2-amino-N-((5-(difluoromethyl)-2-pyridinyl)methyl)-N-((3-fluoro-2-pyridinyl)methyl)-3-methyl-6-quinolinecarboxamide] | – |
| 4120 | 137 | 0.13 | Cc1cc2cc(C(=O)N(Cc3ccc(C(F)(F)F)nc3C)[C@H](C)c3ncccn3)ccc2nc1N [Example 509, 2-amino-3-methyl-N-((2-methyl-6-(trifluoromethyl)-3-pyridinyl)methyl)-N-((1R)-1-(2-pyrimidinyl)ethyl)-6-quinolinecarboxamide] | – |
| 3350 | 159 | 0.2 | Cc1cc2cc(C(=O)N(Cc3ccc(C(N)=O)cc3)Cc3ccc(C(F)(F)F)cn3)ccc2nc1N [Example 355, 2-amino-N-(4-carbamoylbenzyl)-3-methyl-N-((5-(trifluoromethyl)-2-pyridinyl)methyl)-6-quinolinecarboxamide] | – |
| 9080 | 319 | 0.61 | C[C@H](c1ncccc1F)N(Cc1ccc(Br)nn1)C(=O)c1cnc2nc(N)c(Br)cc2c1 [Example 424, 7-amino-6-bromo-N-((6-bromo-3-pyridazinyl)methyl)-N-((1R)-1-(3-fluoro-2-pyridinyl)ethyl)-1,8-naphthyridine-3-carboxamide] | – |

The remaining lines, values behind:

| Compound | IC50 (HCT116 WT cells) [nM] | IC50 (HCT116 MTAP null cells; HCT116-MTAP null) [nM] | Ki (PRMT5/MEP50) [nM] | IC50 (HCT116 MTAP null cells) [nM] |
| --- | --- | --- | --- | --- |
| C[C@H](c1ncccn1)N(Cc1ccc(C(F)(F)F)cn1)C(=O)c1ccc2nc(N)c(Cl)cc2c1 [Example 347, 2-amino-3-chloro-N-((1R)-1-(2-pyrimidinyl)ethyl)-N-((5-(trifluoromethyl)-2-pyridinyl)methyl)-6-quinolinecarboxamide] | 6200 | 168 | 0.17 | – |
| CC(C)CN(Cc1ccc(C(F)(F)F)cn1)C(=O)c1ccc2nc(N)c(Br)cc2c1 [Example 318, 2-amino-3-bromo-N-(2-methylpropyl)-N-((5-(trifluoromethyl)-2-pyridinyl)methyl)-6-quinolinecarboxamide] | > 10000 | 952 | 1.91 | – |
| Cc1cc2cc(C(=O)N(Cc3ccc(C(F)(F)F)cn3)CC(F)(F)F)ccc2nc1N [Example 442, 2-amino-3-methyl-N-(2,2,2-trifluoroethyl)-N-((5-(trifluoromethyl)-2-pyridinyl)methyl)-6-quinolinecarboxamide] | > 10000 | 969 | 6.87 | – |
| Cc1cc2cc(C(=O)N(Cc3ccc(Br)nn3)[C@H](C)c3nccs3)ccc2nc1N [Example 514, 2-amino-N-((6-bromo-3-pyridazinyl)methyl)-3-methyl-N-((1R)-1-(1,3-thiazol-2-yl)ethyl)-6-quinolinecarboxamide] | 625 | 28 | 0.002 | – |
| Cc1cc2cc(C(=O)N(Cc3ccc(C(F)(F)F)cn3)[C@H](C)c3ncccn3)c(Cl)cc2nc1N [Example 437, 2-amino-7-chloro-3-methyl-N-((1R)-1-(2-pyrimidinyl)ethyl)-N-((5-(trifluoromethyl)-2-pyridinyl)methyl)-6-quinolinecarboxamide] | 1350 | 76 | 0.29 | – |
| Cc1cc2cc(C(=O)N(Cc3ccc4ccccc4n3)[C@H](C)c3ncccn3)ccc2nc1N (single isomer, unassigned) [Example 446] | 851 | 45 | 0.04 | – |
| CC[C@H](c1ncccn1)N(Cc1ccc(C(F)(F)F)cn1)C(=O)c1cc2cc(Br)c(N)nc2cn1 (single isomer, unassigned) [Example 499] | > 10000 | 251 | 0.18 | – |
| C[C@H](c1ncccn1)N(Cc1ccc(C(F)(F)F)cn1)C(=O)c1cnc2nc(N)c(Br)cc2c1 [Example 512, 7-amino-6-bromo-N-((1R)-1-(2-pyrimidinyl)ethyl)-N-((5-(trifluoromethyl)-2-pyridinyl)methyl)-1,8-naphthyridine-3-carboxamide] | 3100 | 121 | 0.13 | – |
| Cc1cc2cc(C(=O)N(Cc3ccc(C(F)(F)F)cn3)[C@@H](C)c3ncccc3F)ccc2nc1N [Example 386, 2-amino-N-((1S)-1-(3-fluoro-2-pyridinyl)ethyl)-3-methyl-N-((5-(trifluoromethyl)-2-pyridinyl)methyl)-6-quinolinecarboxamide] | 3830 | – | 3.46 | 241 |
| CCOc1ccc(CN(C(=O)c2ccc3nc(N)c(C)cc3c2)[C@H](C)c2ncccn2)nc1 [Example 375, 2-amino-N-((5-ethoxy-2-pyridinyl)methyl)-3-methyl-N-((1R)-1-(2-pyrimidinyl)ethyl)-6-quinolinecarboxamide] | 2130 | 64 | 0.87 | – |
| COC[C@@H](C)N(Cc1ccc(C(F)(F)F)cn1)C(=O)c1ccc2nc(N)c(C)cc2c1 [Example 507, 2-amino-N-((2R)-1-methoxy-2-propanyl)-3-methyl-N-((5-(trifluoromethyl)-2-pyridinyl)methyl)-6-quinolinecarboxamide] | 913 | 46 | 0.15 | – |
| Cc1cc2cc(C(=O)N(Cc3ccc(C#N)cn3)[C@H](C)c3ncccc3F)c(F)cc2nc1N [Example 353, 2-amino-N-((5-cyano-2-pyridinyl)methyl)-7-fluoro-N-((1R)-1-(3-fluoro-2-pyridinyl)ethyl)-3-methyl-6-quinolinecarboxamide] | 1510 | 73 | 0.02 | – |
